Assays:
[1] = test system: MKN45 Human stomach adenocarcinoma; assay: Secondary cytotoxicity test, MKN45; type: cell-based; settings: MKN-45
Procedure: (§1) Particularly, the cell growth inhibition effect was measured by WST-1 cell proliferation assay [http://www.roche-applied-science.com/PROD_INF/MANUALS/CELL_MAN/apoptosis—087—088.pdf]. The compound of formula 1 was loaded in a 384-well cell culture plate. Three types of glioblastoma multiform cell lines [proneural subtype (559T), mesenchymal subtype (592T), and classical subtype (626T)], normal human astrocytes (NHA), a lung cancer cell line (A549), and a glioblastoma multiform cell line (U87MG) were distributed in the plate at the density of 4.5×10^3 cells/well, and the medium was filled up to make 50 μl per well. At this time, the concentration of the solvent DMSO for the compound of formula 1 was no more than 0.2%. After culturing the cells for 72 hours, 5 mg/ml of WST-1 reagent was added by 5 μl per well, followed by reaction for 3˜4 hours. Then OD450 was measured to investigate the effect of the compound of formula 1 on cell proliferation.
(§2) To investigate the cell growth inhibition effect of the compound of formula 1 of the present invention (azathioprine) in many different cell lines, secondary cytotoxicity test was performed with the cell lines listed in Table 5 by the same manner as described in Example 1.

[2] = test system: NCI-H23 Human lung adenocarcinoma; assay: Secondary cytotoxicity test, NCI-H23; type: cell-based
Procedure: as §1, §2

[3] = test system: CCD986SK Human fibroblast; assay: Secondary cytotoxicity test, CCD986SK; type: cell-based; settings: CCD-986Sk
Procedure: as §1, §2

[4] = test system: Hela Human adenocarcinoma; assay: Secondary cytotoxicity test, Hela; type: cell-based
Procedure: as §1, §2

[5] = test system: HepG2 Human hepatocarcinoma; assay: Secondary cytotoxicity test, HepG2; type: cell-based
Procedure: as §1, §2

[6] = test system: HCT-116 Human colorectal carcinoma; assay: Secondary cytotoxicity test, HCT-116; type: cell-based
Procedure: as §1, §2

[7] = test system: PC3 Human prostate adenocarcinoma; assay: Secondary cytotoxicity test, PC3; type: cell-based; settings: PC-3
Procedure: as §1, §2

[8] = test system: MCF-7 Human breast adenocarcinoma; assay: Secondary cytotoxicity test, MCF-7; type: cell-based; settings: MCF7
Procedure: as §1, §2

HaCat Human keratinocyte = assay: Secondary cytotoxicity test, HaCat; type: cell-based
Procedure: as §1, §2

[9] = test system: U2932 Human DLBCL (Diffuse large B-cell lymphoma); assay: Secondary cytotoxicity test, U2932; type: cell-based
Procedure: as §1, §2

[10] = test system: GBM #8 glioblastoma multiform patient originated cells; assay: Neurosphere formation inhibition, GBM #8; type: cell-based, human; design: key: S: strong effect; I: intermediate effect; R: rare effect; settings: GBM #8, type C (mesenchymal), Temodal 20 μM, duration 15 day
Procedure: (§3) Particularly, to investigate neurosphere formation, glioblastoma multiform cells were cultured for a certain time and the cells were distributed again in culture vessels, followed by additional culture. Then, the number of newly generated neurospheres was measured. First, the glioblastoma multiform patient originated cells were sub-cultured, which were distributed in a 96-well plate (20, 50, and 200 cells in 50 μl of culture medium/well). 2, 6, and 20 μM of the compound of formula 1 (azathioprine) and the compound of Comparative Example 1 (Temodal) were treated thereto by 50 μl per well to make the final concentrations of 1, 3, and 10 μM. Then, the compound of formula 1 (azathioprine) and the compound of Comparative Example 1 (Temodal) were added to 50 μl of cell culture medium with the same concentrations as the above once a week, which were then cultured for 7˜23 days. When neurosphere was formed at least 50 μm in the control group not treated with the compound, the number of neurospheres in each well was counted to compare the neurosphere formation before and after the treatment of the compound of formula 1 (azathioprine) and the compound of Comparative Example 1 (Temodal).
(§4) The glioblastoma multiform cells used in this experiment were classified into 4 types, which are type A, type B, type C, and type D, according to the gene expression pattern. […]

[11] = test system: GBM #5 glioblastoma multiform patient originated cells; assay: Neurosphere formation inhibition, GBM #5; type: cell-based, human; design: key: S: strong effect; I: intermediate effect; R: rare effect; settings: GBM #5, type B (classical), Temodal 20 μM, duration 21 day
Procedure: as §3, with “2, 6, and 20 μM of the compound of formula 1 (azathioprine) and the compound of Comparative Example 1 (Temodal) were treated thereto by 50 μl per well to make the final concentrations of 1, 3, and 10 μM.” left out
(§5) The glioblastoma multiform cells used in this experiment were classified into 4 types, which are type A, type B, type C, and type D, according to the gene expression pattern. Methylation of MGMT (O6-me-G methyltransferase), the DNA repair protein, was confirmed in each cell line. […]

[12] = test system: GBM #7 glioblastoma multiform patient originated cells; assay: Neurosphere formation inhibition, GBM #7; type: cell-based, human; design: key: S: strong effect; I: intermediate effect; R: rare effect; settings: GBM #7, type B (classical), Temodal 20 μM, duration 23 day
Procedure: as §3, §4

[13] = test system: GBM #10 glioblastoma multiform patient originated cells; assay: Neurosphere formation inhibition, GBM #10; type: cell-based, human; design: key: S: strong effect; I: intermediate effect; R: rare effect; settings: GBM #10, type D (non-classified), Temodal 20 μM, duration 10 day
Procedure: as §3, with “2, 6, and 20 μM of the compound of formula 1 (azathioprine) and the compound of Comparative Example 1 (Temodal) were treated thereto by 50 μl per well to make the final concentrations of 1, 3, and 10 μM.” left out
as §5

[14] = test system: GBM #2 glioblastoma multiform patient originated cells; assay: Neurosphere formation inhibition, GBM #2; type: cell-based, human; design: key: S: strong effect; I: intermediate effect; R: rare effect; settings: GBM #2, type A (proneural), Temodal 20 μM, duration 15 day
Procedure: as §3, with “2, 6, and 20 μM of the compound of formula 1 (azathioprine) and the compound of Comparative Example 1 (Temodal) were treated thereto by 50 μl per well to make the final concentrations of 1, 3, and 10 μM.” left out
as §5

[15] = test system: GBM #6 glioblastoma multiform patient originated cells; assay: Neurosphere formation inhibition, GBM #6; type: cell-based, human; design: key: S: strong effect; I: intermediate effect; R: rare effect; settings: GBM #6, type B (classical), Temodal 20 μM, duration 23 day
Procedure: as §3, §4

[16] = test system: GBM #4 glioblastoma multiform patient originated cells; assay: Neurosphere formation inhibition, GBM #4; type: cell-based, human; design: key: S: strong effect; I: intermediate effect; R: rare effect; settings: GBM #4, type B (classical), Temodal 20 μM, duration 9 day
Procedure: as §3, with “2, 6, and 20 μM of the compound of formula 1 (azathioprine) and the compound of Comparative Example 1 (Temodal) were treated thereto by 50 μl per well to make the final concentrations of 1, 3, and 10 μM.” left out
as §5

[17] = test system: GBM #1 glioblastoma multiform patient originated cells; assay: Neurosphere formation inhibition, GBM #1; type: cell-based, human; design: key to inhibition of neurosphere formation: S: strong effect; I: intermediate effect; R: rare effect; settings: GBM #1, type A (proneural), Temodal 20 μM, duration 7 day
Procedure: as §3
The glioblastoma multiform cells used in this experiment were classified into 4 types, which are type A, type B, type C, and type D, according to the gene expression pattern. Methylation of MGMT (O6-me-G methyltransferase), the DNA repair protein, was confirmed in each cell line. At that time, type A [GBM #1, #2, #3] was proneural subtype, type B [GBM #4, #5, #6, #7] was classical subtype, type C [GBM #8] was mesenchymal subtype, and type D [GBM #9, #10] was non-classified glioblastoma multiform.

[18] = test system: GBM #9 glioblastoma multiform patient originated cells; assay: Neurosphere formation inhibition, GBM #9; type: cell-based, human; design: key: S: strong effect; I: intermediate effect; R: rare effect; settings: GBM #9, type D (non-classified), Temodal 20 μM, duration 21 day
Procedure: as §3, with “2, 6, and 20 μM of the compound of formula 1 (azathioprine) and the compound of Comparative Example 1 (Temodal) were treated thereto by 50 μl per well to make the final concentrations of 1, 3, and 10 μM.” left out
as §5

[19] = test system: GBM #3 glioblastoma multiform patient originated cells; assay: Neurosphere formation inhibition, GBM #3; type: cell-based, human; design: key: S: strong effect; I: intermediate effect; R: rare effect; settings: GBM #3, type A (proneural), Temodal 20 μM, duration 21 day
Procedure: as §3, with “2, 6, and 20 μM of the compound of formula 1 (azathioprine) and the compound of Comparative Example 1 (Temodal) were treated thereto by 50 μl per well to make the final concentrations of 1, 3, and 10 μM.” left out
as §5

[20] = test system: glioblastoma multiform cells transplanted in the brain of a mouse; assay: Glioblastoma multiform orthotopic animal model, survival; type: in vivo; settings: single treatment; for Average Survival Period: Temodal 65 mg/kg oral for 5 days from day 17 after transplantation, control 27 days; for Survival Period Extension Rate (%): vs. untreated control, Temodal 65 mg/kg oral for 5 days from day 17
Procedure: Following experiment was performed to investigate the radiosensitizing effect and chemosensitizing effect of the compound of formula 1 (azathioprine) in the glioblastoma multiform orthotopic animal model.
Particularly, to investigate the resistance against Temodal or radiotherapy in glioblastoma multiform, glioblastoma multiform cells were cultured. The cultured cells (2×10^5/5 μl) were transplanted in the brain of a mouse. 17 days later, the administration of Temodal (65 mg/kg, oral-administration) or radiotherapy (2 Gy) began, which continued for 5 days. The average survival period was investigated. […] For the comparison, the survival period of the group treated with “Avastin”, the well-known anticancer agent, is also presented.
Glioblastoma multiform, glioblastoma multiform cells were cultured. The cultured cells (2×10^5/5 μl) were transplanted in the brain of a mouse. 17 days later, the administration of Temodal (65 mg/kg, oral-administration) or radiotherapy (2 Gy) began, which continued for 5 days. Unlike the above experiment, the compound of formula 1 of the present invention (azathioprine) was co-treated to the mouse by oral-administration at the dose of 20 mg/kg every day after 11 days from the glioblastoma multiform transplantation in the mouse brain. Then, the average survival period was investigated.

[21] = test system: cells of lung cancer with brain metastasis transplanted in the mouse brain; assay: Animal test with cells of lung cancer with brain metastasis, survival; type: in vivo; settings: azathioprine 2 mg/kg oral every day after day 11, Temodal (TMZ) 65 mg/kg oral 5 days from day 17
Procedure: The cells of lung cancer with brain metastasis were obtained from Samsung Hospital (Seoul) and cultured. The cultured cells (2×10^5/5 μl) were transplanted in the mouse brain. 17 days later, Temodal administration (65 mg/kg, oral administration) began, which continued for 5 days. The compound of formula 1 of the present invention (azathioprine) was co-treated to the mouse by oral-administration at the dose of 2 mg/kg every day after 11 days from the transplantation of the cells of lung cancer with brain metastasis in the mouse brain. Then, the average survival period was investigated.

COc1cccc2c1C(=O)c1c(O)c3c(c(O)c1C2=O)C[C@@](O)(C(=O)CO)C[C@@H]3O[C@H]1C[C@H](N)[C@H](O)[C@H](C)O1 [Doxorubicin, reference compound]
IC50 [1]: 280 nM | IC50 [2]: 190 nM | IC50 [3]: 960 nM | IC50 [4]: 370 nM | IC50 [5]: 700 nM | IC50 [6]: 390 nM | IC50 [7]: 350 nM | IC50 [8]: 550 nM | IC50 (HaCat Human keratinocyte): 230 nM | IC50 [9]: 440 nM

Cn1nnc2c(C(N)=O)ncn2c1=O [Temodal, temozolomide]
inhibition of neurosphere formation [10]: R | inhibition of neurosphere formation [11]: S | inhibition of neurosphere formation [12]: S | inhibition of neurosphere formation [13]: R | inhibition of neurosphere formation [14]: R | inhibition of neurosphere formation [15]: S | inhibition of neurosphere formation [16]: S | inhibition of neurosphere formation [17]: S | inhibition of neurosphere formation [18]: S | inhibition of neurosphere formation [19]: R | Average Survival Period [20]: 31 days | Survival Period Extension Rate (%) [20]: 19% | Average Survival Period [21]: 63 days | Survival Period Extension Rate (%) [21]: 100-129%

Avastin: the well-known anticancer agent
Average Survival Period [20]: 28 days | Survival Period Extension Rate (%) [20]: 8%

— patent publication US20150141439A1, “PHARMACEUTICAL COMPOSITION FOR THE PREVENTION OR TREATMENT OF BRAIN TUMOR OR TEMODAL RESISTANT GLIOBLASTOMA MULTIFORM COMPRISING AZATHIOPRINE AS AN ACTIVE INGREDIENT” (KOREA RESEARCH INSTITUTE OF CHEMICAL TECHNOLOGY, priority 2012, published 2015)
